Test results published in patent publication US20250059610A1, “METHODS OF TREATING TUMOR” (priority 2017, published 2025).

How the values were obtained:
[1] = test system: recurrent small cell lung cancer (SCLC); assay: Clinical trial of nivolumab alone or with ipilimumab in SCLC, exploratory TMB analysis; format: in vivo, human
Text: Subjects were selects who had previously been diagnosed with SCLC, and who had previously received at least one prior platinum-containing regimen (FIG. 23).
The primary objective was to measure the objective response rate (ORR) by per RECIST v1.1. Secondary objectives included monitoring safety, overall survival (OS), progression free survival (PFS), and duration of response (DOR). Prespecified exploratory objectives included biomarker analysis and health status using the EQ-5D instrument.
TMB was determined by whole exome sequencing, using an Illumina HiSeq 2500 using 2×100-bp paired-end reads, and calculated as the total number of nonsynonymous missense mutations in the tumor. For exploratory analyses, patients were divided into 3 subgroups based on TMB tertile.

[2] = test system: NSCLC with ≥50% PD-L1 expression; conditions: first-line; cited from earlier work

## ipilimumab: fully human, IgG1 monoclonal antibody that blocks the binding of CTLA-4 to its B7 ligands
[1]; high TMB
  ORR: ~46.2%
[1]; low TMB
  ORR: ~22.2%
[1]; medium TMB
  ORR: ~16.0%

## pembrolizumab
[2]
  ORR: 45%
  median PFS: 10.3 months
